Tested on: 282377-053-R-J1-PDC complex spheroid viability
Assay: Anticancer human tumor 282377-053-R-J1-PDC patient-derived colon adenocarcinoma cell line growth inhibition [POLQ]
Conditions: for IC50: curve of first compound; for viability, T/C: stronger effect = lower value
Procedure, shortened: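 Growth inhibition in 3D: complex spheroids (tumor PDC, HUVEC, MSC) treated with POLQ inhibitor combinations; where Cmax unknown, highest tested concentration 10 microM, except SN-38 at 1 microM.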

[1] = second compound 0.0316 µM, first compound 0.0316 µM
[2] = second compound 0.0316 µM, first compound 0.1 µM
[3] = second compound 0.0316 µM, first compound 0.316 µM
[4] = second compound 0.0316 µM, first compound 1 µM
[5] = second compound 0.0316 µM, first compound 3.16 µM
[6] = second compound 0.0316 µM, first compound 10 µM
[7] = second compound 0.1 µM, first compound 0.0316 µM
[8] = second compound 0.1 µM, first compound 0.1 µM
[9] = second compound 0.1 µM, first compound 0.316 µM
[10] = second compound 0.1 µM, first compound 1 µM
[11] = second compound 0.1 µM, first compound 3.16 µM
[12] = second compound 0.1 µM, first compound 10 µM
[13] = second compound 0.316 µM, first compound 0.0316 µM
[14] = second compound 0.316 µM, first compound 0.1 µM
[15] = second compound 0.316 µM, first compound 0.316 µM
[16] = second compound 0.316 µM, first compound 1 µM
[17] = second compound 0.316 µM, first compound 3.16 µM
[18] = second compound 0.316 µM, first compound 10 µM
[19] = second compound 1 µM, first compound 0.0316 µM
[20] = second compound 1 µM, first compound 0.1 µM
[21] = second compound 1 µM, first compound 0.316 µM
[22] = second compound 1 µM, first compound 1 µM
[23] = second compound 1 µM, first compound 3.16 µM
[24] = second compound 1 µM, first compound 10 µM
[25] = second compound 3.16 µM, first compound 0.0316 µM
[26] = second compound 3.16 µM, first compound 0.1 µM
[27] = second compound 3.16 µM, first compound 0.316 µM
[28] = second compound 3.16 µM, first compound 1 µM
[29] = second compound 3.16 µM, first compound 3.16 µM
[30] = second compound 3.16 µM, first compound 10 µM
[31] = second compound 10 µM, first compound 0.0316 µM
[32] = second compound 10 µM, first compound 0.1 µM
[33] = second compound 10 µM, first compound 0.316 µM
[34] = second compound 10 µM, first compound 1 µM
[35] = second compound 10 µM, first compound 3.16 µM
[36] = second compound 10 µM, first compound 10 µM
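Further: spheroids exposed to compounds for seven days.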
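Wherever viability, T/C is given: 100% = DMSO vehicle control viability.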

CC1COCCN1c1cc(C2(O)CC3CCC(C2)O3)c2cnn(-c3ccn[nH]3)c2n1 (stereo unspecified) + Cc1cccc(N(C)C(=O)C2C(O)CCN2c2nc(C)cc(C(F)(F)F)c2C#N)c1
IC50 (second compound 0.0316 µM): 524 nM | IC50 (second compound 0.1 µM): 300 nM | IC50 (second compound 0.316 µM): 242 nM | IC50 (second compound 1 µM): 489 nM | IC50 (second compound 3.16 µM): 230 nM | IC50 (second compound 10 µM): 302 nM | viability, T/C [1]: 106% | viability, T/C [2]: 74.9% | viability, T/C [3]: 67.9% | viability, T/C [4]: 33% | viability, T/C [5]: 25.5% | viability, T/C [6]: 16.7% | viability, T/C [7]: 83.8% | viability, T/C [8]: 83.6% | viability, T/C [9]: 48.4% | viability, T/C [10]: 28.1% | viability, T/C [11]: 30.4% | viability, T/C [12]: 21.9% | viability, T/C [13]: 78.9% | viability, T/C [14]: 68.3% | viability, T/C [15]: 44.6% | viability, T/C [16]: 27.3% | viability, T/C [17]: 29.2% | viability, T/C [18]: 19.8% | viability, T/C [19]: 80.7% | viability, T/C [20]: 79.2% | viability, T/C [21]: 54% | viability, T/C [22]: 37.2% | viability, T/C [23]: 27% | viability, T/C [24]: 13.9% | viability, T/C [25]: 78.7% | viability, T/C [26]: 55.2% | viability, T/C [27]: 49% | viability, T/C [28]: 30% | viability, T/C [29]: 31.2% | viability, T/C [30]: 13.6% | viability, T/C [31]: 76% | viability, T/C [32]: 66.1% | viability, T/C [33]: 49.2% | viability, T/C [34]: 30.9% | viability, T/C [35]: 31.6% | viability, T/C [36]: 14.4%

CCCS(=O)(=O)Nc1ccc(F)c(C(=O)c2c[nH]c3ncc(-c4ccc(Cl)cc4)cc23)c1F + COC1C(OC(N)=O)C(O)C(Oc2ccc3c(O)c(NC(=O)c4ccc(O)c(CC=C(C)C)c4)c(=O)oc3c2C)OC1(C)C
IC50 (second compound 0.0316 µM): 3550 nM | IC50 (second compound 0.1 µM): 4030 nM | IC50 (second compound 0.316 µM): 3460 nM | IC50 (second compound 1 µM): 3450 nM | IC50 (second compound 3.16 µM): 3830 nM | IC50 (second compound 10 µM): 2370 nM | viability, T/C [1]: 91.9% | viability, T/C [2]: 77.1% | viability, T/C [3]: 81.1% | viability, T/C [4]: 56.5% | viability, T/C [5]: 59.4% | viability, T/C [6]: 33.2% | viability, T/C [7]: 86.6% | viability, T/C [8]: 76.1% | viability, T/C [9]: 65.7% | viability, T/C [10]: 68.4% | viability, T/C [11]: 60% | viability, T/C [12]: 29.9% | viability, T/C [13]: 89.8% | viability, T/C [14]: 65.5% | viability, T/C [15]: 63.5% | viability, T/C [16]: 65.3% | viability, T/C [17]: 58.4% | viability, T/C [18]: 32.9% | viability, T/C [19]: 108% | viability, T/C [20]: 63.7% | viability, T/C [21]: 80.9% | viability, T/C [22]: 58.5% | viability, T/C [23]: 66.5% | viability, T/C [24]: 30.6% | viability, T/C [25]: 93.1% | viability, T/C [26]: 82% | viability, T/C [27]: 68.7% | viability, T/C [28]: 54.9% | viability, T/C [29]: 68.4% | viability, T/C [30]: 33.2% | viability, T/C [31]: 89.1% | viability, T/C [32]: 73.5% | viability, T/C [33]: 73.1% | viability, T/C [34]: 73.3% | viability, T/C [35]: 42.2% | viability, T/C [36]: 38%

COc1cccc(OCCCN)c1-c1cc(Nc2cnc(C#N)cn2)n[nH]1 + Cc1cccc(N(C)C(=O)C2C(O)CCN2c2nc(C)cc(C(F)(F)F)c2C#N)c1
IC50 (second compound 0.0316 µM): 632 nM | IC50 (second compound 0.1 µM): 559 nM | IC50 (second compound 0.316 µM): > 1000 nM | IC50 (second compound 1 µM): 545 nM | IC50 (second compound 3.16 µM): 300 nM | IC50 (second compound 10 µM): 395 nM | viability, T/C (second compound 0.0316 µM, first compound 0.00316 µM): 102% | viability, T/C (second compound 0.0316 µM, first compound 0.01 µM): 98.5% | viability, T/C [1]: 85.8% | viability, T/C [2]: 74.5% | viability, T/C [3]: 60.9% | viability, T/C [4]: 43.1% | viability, T/C (second compound 0.1 µM, first compound 0.00316 µM): 100% | viability, T/C (second compound 0.1 µM, first compound 0.01 µM): 95.4% | viability, T/C [7]: 97% | viability, T/C [8]: 73.4% | viability, T/C [9]: 60% | viability, T/C [10]: 41.5% | viability, T/C (second compound 0.316 µM, first compound 0.00316 µM): 91% | viability, T/C (second compound 0.316 µM, first compound 0.01 µM): 88.5% | viability, T/C [13]: 86.1% | viability, T/C [14]: 64.2% | viability, T/C [15]: 55.7% | viability, T/C [16]: 49.2% | viability, T/C (second compound 1 µM, first compound 0.00316 µM): 109% | viability, T/C (second compound 1 µM, first compound 0.01 µM): 90.2% | viability, T/C [19]: 72.9% | viability, T/C [20]: 59% | viability, T/C [21]: 57.3% | viability, T/C [22]: 45.1% | viability, T/C (second compound 3.16 µM, first compound 0.00316 µM): 95.9% | viability, T/C (second compound 3.16 µM, first compound 0.01 µM): 102% | viability, T/C [25]: 84.7% | viability, T/C [26]: 65.7% | viability, T/C [27]: 51.8% | viability, T/C [28]: 39.4% | viability, T/C (second compound 10 µM, first compound 0.00316 µM): 85.3% | viability, T/C (second compound 10 µM, first compound 0.01 µM): 90.1% | viability, T/C [31]: 72.3% | viability, T/C [32]: 61.8% | viability, T/C [33]: 55.8% | viability, T/C [34]: 39.6%

From PubChem BioAssay AID1963852 (Molecular Pharmacology Branch, DTP, NCI, 2024)
